Assays:
IDH1 R132H = IDH1 R132H (Homo sapiens (Human), UniProt O75874, R132H); test: Assays for IDH1 R132H Inhibitors (NADPH/aKG, resazurin detection); type: biochemical; details: IDH1 R132H enzyme, Table 3; read-out: R132H IC50
Procedure, shortened: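 Substrate mix held 8 uM NADPH plus 2 mM aKG; buffer was 20 mM Tris pH 7.5 with 150 mM NaCl, 10 mM MgCl2, 0.03% BSA. After 50 min room-temperature reaction, NADPH remaining was detected with 30 μM resazurin mix over 5 min.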

HT1080 cells = test: Cellular assay for IDH1m inhibitors: inhibition of 2-HG production in HT1080 cells (LC-MS); type: cell-based; details: Homo sapiens, HT-1080, 48 hours
Method: (§1) Cells (e.g., HT1080 or U87MG) are grown in T125 flasks in DMEM containing 10% FBS, 1× penicillin/streptomycin and 500 ug/mL G418. They are harvested by trypsin and seeded into 96 well white bottom plates at a density of 5000 cell/well in 100 ul/well in DMEM with 10% FBS. No cells are plates in columns 1 and 12. Cells are incubated overnight at 37 C in 5% CO2. The next day compounds are made up at 2× concentration and 100 ul are added to each cell well. The final concentration of DMSO is 0.2% and the DMSO control wells are plated in row G. The plates are then placed in the incubator for 48 hours. At 48 hours, 100 ul of media is removed from each well and analyzed by LC-MS for 2-HG concentrations. The cell plate is placed back in the incubator for another 24 hours. At 72 hours post compound addition, 10 mL/plate of Promega Cell Titer Glo reagent is thawed and mixed. The cell plate is removed from the incubator and allowed to equilibrate to room temperature. Then 100 ul of reagent is added to each well of media. The cell plate is then placed on an orbital shaker for 10 minutes and then allowed to sit at room temperature for 20 minutes. The plate is then read for luminescence with an integration time of 500 ms.

U87R132H (U87MG) cells = test: Cellular assay for IDH1m inhibitors: inhibition of 2-HG production in U87MG (U87R132H) cells (LC-MS); type: cell-based; details: Homo sapiens, U-87 MG, 48 hours
Method: as §1

Chain of IDH1 R132H (O75874 whole entry R132H): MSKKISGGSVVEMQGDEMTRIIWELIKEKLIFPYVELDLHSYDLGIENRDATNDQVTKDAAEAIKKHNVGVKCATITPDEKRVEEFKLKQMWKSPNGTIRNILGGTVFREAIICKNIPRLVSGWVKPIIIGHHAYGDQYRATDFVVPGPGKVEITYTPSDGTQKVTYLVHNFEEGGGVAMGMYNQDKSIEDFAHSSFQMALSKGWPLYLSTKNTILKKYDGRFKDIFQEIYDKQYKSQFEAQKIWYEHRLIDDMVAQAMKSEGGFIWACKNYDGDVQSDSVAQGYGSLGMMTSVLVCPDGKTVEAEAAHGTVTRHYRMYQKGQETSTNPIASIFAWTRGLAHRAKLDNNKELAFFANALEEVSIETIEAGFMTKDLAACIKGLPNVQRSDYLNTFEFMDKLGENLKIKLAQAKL

| IC50 (IDH1 R132H) | IC50 (HT1080 cells) | IC50 (U87R132H (U87MG) cells) | Structure (SMILES) |
| --- | --- | --- | --- |
| < 500 nM | < 500 nM | < 500 nM | CC1(C)Cc2c(C#N)c(N3CCN(C(=O)CCO)[C@H](C4CC4)C3)nc(C3CC3)c2CO1 [Compound 460, (R)-8-cyclopropyl-6-(3-cyclopropyl-4-(3-hydroxypropanoyl)piperazin-1-yl)-3,3-dimethyl-3,4-dihydro-1H-pyrano[3,4-c]pyridine-5-carbonitrile] |
| < 500 nM | < 500 nM | < 500 nM | C=CS(=O)(=O)N1CCc2c(C#N)c(-c3ccc(C(=O)OC)cc3F)nc(C3CC3)c2C1 [Compound 496] |
| < 500 nM | 500 to 1000 nM | < 500 nM | CCOC(=O)[C@@H]1C[C@H]1C(=O)N1CCN(c2nc(C3CC3)c3c(c2C#N)CC(C)(C)OC3)C[C@H]1C(C)C [Compound 465, (1R,2R)-ethyl 2-((R)-4-(5-cyano-8-cyclopropyl-3,3-dimethyl-3,4-dihydro-1H-pyrano[3,4-c]pyridin-6-yl)-2-isopropylpiperazine-1-carbonyl)cyclopropanecarboxylate] |
| < 500 nM | < 500 nM | < 500 nM | C=CS(=O)(=O)N1CCc2c(C#N)c(N3CCN(C(=O)C4CC4)[C@H](C4CC4)C3)nc(C3CC3)c2C1 [Compound 493, (R)-3-(4-(cyclopropanecarbonyl)-3-cyclopropylpiperazin-1-yl)-1-cyclopropyl-7-(vinylsulfonyl)-5,6,7,8-tetrahydro-2,7-naphthyridine-4-carbonitrile] |
| < 500 nM | 500 to 1000 nM | 500 to 1000 nM | CC(C)[C@@H]1CN(c2nc(C3CC3)c3c(c2C#N)CC(C)(C)OC3)CCN1C(=O)[C@@H]1C[C@H]1CO [Compound 462, 8-Cyclopropyl-6-((R)-4-((1R,2R)-2-(hydroxymethyl)cyclopropanecarbonyl)-3-isopropylpiperazin-1-yl)-3,3-dimethyl-3,4-dihydro-1H-pyrano[3,4-c]pyridine-5-carbonitrile] |
| < 500 nM | 1000 to 10000 nM | 1000 to 10000 nM | [2H]C1([2H])CN(c2nc(C3CC3)c3c(c2C#N)CC(C)(C)OC3)C([2H])([2H])C([2H])(C([2H])(C([2H])([2H])[2H])C([2H])([2H])[2H])N1C(=O)CC(F)(F)F [Compound 476, (R)-8-cyclopropyl-3,3-dimethyl-6-(2,2,3,5,5-pentadeuterio-3-(1,1,1,3,3,3-hexadeuteriopropan-2-yl)-4-(3,3,3-trifluoropropanoyl)piperazin-1-yl)-3,4-dihydro-1H-pyrano[3,4-c]pyridine-5-carbonitrile] |
| < 500 nM | 1000 to 10000 nM | 1000 to 10000 nM | COCCC(=O)N1CCN(c2nc(C3CC3)c3c(c2C#N)CC(C)(C)OC3)CC1CC(F)(F)F (stereo not drawn) [Compound 469, 8-cyclopropyl-6-(4-(3-methoxypropanoyl)-3-(2,2,2-trifluoroethyl)piperazin-1-yl)-3,3-dimethyl-3,4-dihydro-1H-pyrano[3,4-c]pyridine-5-carbonitrile] |
| 500 to 1000 nM | 1000 to 10000 nM | 1000 to 10000 nM | CC1(C)Cc2c(C#N)c(N3CCN(C(=O)C4CC4)C(C(F)F)C3)nc(C3CC3)c2CO1 (stereo not drawn) [Compound 463, 6-(4-(cyclopropanecarbonyl)-3-(difluoromethyl)piperazin-1-yl)-8-cyclopropyl-3,3-dimethyl-3,4-dihydro-1H-pyrano[3,4-c]pyridine-5-carbonitrile] |
| < 500 nM | 500 to 1000 nM | < 500 nM | CC1(C)Cc2c(C#N)c(N3CCN(C(=O)C4CC4)[C@H](C4CC4)C3)nc(C3CC3)c2CO1 [Compound 461, (R)-6-(4-(cyclopropanecarbonyl)-3-cyclopropylpiperazin-1-yl)-8-cyclopropyl-3,3-dimethyl-3,4-dihydro-1H-pyrano[3,4-c]pyridine-5-carbonitrile] |

Second part, the compound before the results:

| Structure (SMILES) | IC50 (IDH1 R132H) | IC50 (HT1080 cells) | IC50 (U87R132H (U87MG) cells) |
| --- | --- | --- | --- |
| [2H]C1([2H])CN(C(=O)CCOC)[C@]([2H])(C([2H])(C([2H])([2H])[2H])C([2H])([2H])[2H])CN1c1nc(C2CC2)c2c(c1C#N)CC(C)(C)OC2 [Compound 444, (R)-8-cyclopropyl-3,3-dimethyl-6-(2,2,5-trideuterio-4-(3-methoxypropanoyl)-5-(perdeuteriopropan-2-yl)piperazin-1-yl)-3,4-dihydro-1H-pyrano[3,4-c]pyridine-5-carbonitrile] | < 500 nM | < 500 nM | < 500 nM |
| COCCC(=O)N1CCN(c2nc(C3CC3)c3c(c2C#N)CC(C)(C)OC3)C[C@H]1C [Compound 432, (R)-8-cyclopropyl-6-(4-(3-methoxypropanoyl)-3-methylpiperazin-1-yl)-3,3-dimethyl-3,4-dihydro-1H-pyrano[3,4-c]pyridine-5-carbonitrile] | 500 to 1000 nM | 1000 to 10000 nM | 1000 to 10000 nM |
| [2H]C([2H])([2H])C([2H])(C([2H])([2H])[2H])[C@@]1([2H])N(C(=O)CCC(=O)OC)C([2H])([2H])C([2H])([2H])N(c2nc(C3CC3)c3c(c2C#N)CC(C)(C)OC3)C1([2H])[2H] [Compound 450] | < 500 nM | < 500 nM | < 500 nM |
| [2H]C([2H])([2H])C([2H])(C([2H])([2H])[2H])C1([2H])CN(c2nc(C3CC3)c3c(c2C#N)CC(C)(C)OC3)CCN1C(=O)CC(F)(F)F (stereo in doubt) [Compound 451, (R)-8-cyclopropyl-6-(3-deuterio-3-(perdeuteriopropan-2-yl)-4-(3,3,3-trifluoropropanoyl)piperazin-1-yl)-3,3-dimethyl-3,4-dihydro-1H-pyrano[3,4-c]pyridine-5-carbonitrile] | < 500 nM | 1000 to 10000 nM | 1000 to 10000 nM |
| COC(=O)CC(=O)N1CCN(c2nc(C3CC3)c3c(c2C#N)CC(C)(C)OC3)C[C@H]1C1CC1 [Compound 440, (R)-methyl 3-(4-(5-cyano-8-cyclopropyl-3,3-dimethyl-3,4-dihydro-1H-pyrano[3,4-c]pyridin-6-yl)-2-cyclopropylpiperazin-1-yl)-3-oxopropanoate] | < 500 nM | < 500 nM | < 500 nM |
| CCOC(=O)C1CN(c2nc(C3CC3)c3c(c2C#N)CC(C)(C)OC3)CCN1C(=O)Cc1cccs1 (stereo not drawn) [Compound 421, Ethyl 4-(5-cyano-8-cyclopropyl-3,3-dimethyl-3,4-dihydro-1H-pyrano[3,4-c]pyridin-6-yl)-1-(2-(thiophen-2-yl)acetyl)piperazine-2-carboxylate] | 500 to 1000 nM | 1000 to 10000 nM | 1000 to 10000 nM |
| CC(=O)CCC(=O)N1CCN(c2nc(C3CC3)c3c(c2C#N)CC(C)(C)OC3)C[C@H]1C(C)C [Compound 428, (R)-8-cyclopropyl-6-(3-isopropyl-4-(4-oxopentanoyl)piperazin-1-yl)-3,3-dimethyl-3,4-dihydro-1H-pyrano[3,4-c]pyridine-5-carbonitrile] | < 500 nM | 1000 to 10000 nM | < 500 nM |
| COCCC(=O)N1CCN(c2nc(C3CC3)c3c(c2C#N)CC(C)(C)OC3)CC1C1CC1 (stereo not drawn) [Compound 425, 8-cyclopropyl-6-(3-cyclopropyl-4-(3-methoxypropanoyl)piperazin-1-yl)-3,3-dimethyl-3,4-dihydro-1H-pyrano[3,4-c]pyridine-5-carbonitrile] | < 500 nM | < 500 nM | < 500 nM |
| CCOC(=O)CCC(=O)N1CCN(c2nc(C3CC3)c3c(c2C#N)CC(C)(C)OC3)C[C@H]1C(C)C [Compound 456, (R)-ethyl-4-(4-(5-cyano-8-cyclopropyl-3,3-dimethyl-3,4-dihydro-1H-pyrano[3,4-c]pyridin-6-yl)-2-isopropylpiperazin-1-yl)-4-oxobutanoate] | < 500 nM | 500 to 1000 nM | < 500 nM |
| COCCCC(=O)N1CCN(c2nc(C3CC3)c3c(c2C#N)CC(C)(C)OC3)C[C@H]1C(C)C [Compound 424, (R)-8-cyclopropyl-6-(3-isopropyl-4-(4-methoxybutanoyl)piperazin-1-yl)-3,3-dimethyl-3,4-dihydro-1H-pyrano[3,4-c]pyridine-5-carbonitrile] | < 500 nM | 500 to 1000 nM | 500 to 1000 nM |
| [2H]C([2H])([2H])C([2H])(C([2H])([2H])[2H])[C@@]1([2H])N(C(=O)CCOC)C([2H])([2H])C([2H])([2H])N(c2nc(C3CC3)c3c(c2C#N)CC(C)(C)OC3)C1([2H])[2H] [Compound 441, (R)-8-cyclopropyl-6-(2,2,3,3,5,6,6-heptadeuterio-4-(3-methoxypropanoyl)-5-(perdeuteriopropan-2-yl)piperazin-1-yl)-3,3-dimethyl-3,4-dihydro-1H-pyrano[3,4-c]pyridine-5-carbonitrile] | < 500 nM | < 500 nM | < 500 nM |
| COC(=O)NCCC(=O)N1CCN(c2nc(C3CC3)c3c(c2C#N)CC(C)(C)OC3)C[C@H]1C(C)C [Compound 431, (R)-methyl 3-(4-(5-cyano-8-cyclopropyl-3,3-dimethyl-3,4-dihydro-1H-pyrano[3,4-c]pyridin-6-yl)-2-isopropylpiperazin-1-yl)-3-oxopropylcarbamate] | 500 to 1000 nM | 1000 to 10000 nM | 1000 to 10000 nM |
